Patent US20110071108A1, “Beta-Cyclodextrin Derivatives as Antibacterial Agents” (Pinnacle Pharmaceuticals, Inc., priority 2005, published 2011)

Tests used:
Test in all cases: Bacterial panel testing, MIC by broth microdilution
Type in all cases: cell-based
Conditions in all cases: 20-24 hours growth
Pseudomonas aeruginosa = system: Pseudomonas aeruginosa
Procedure: (§1) One to three colonies of bacteria were picked from an Mueller-Hinton or Brain Heart infusion agar plate (depending on the bacterial strain) and transferred to 3 ml Mueller-Hinton broth or Brain Heart infusion media (depending on the bacterial strain). Bacteria were allowed to grow for 2-4 hours in an incubator at 37° C. Bacteria-inoculated media were dispersed in 0.9% saline to match McFarland standard density. 100 μl standardized inoculation was added to 20 ml media (dilution 1). 10 μl of the new dilution was added to 990 μl media and mixed (dilution 2). 10 μl of dilution 2 was spread on an agar plate and allowed to grow overnight. Colonies were then […].
(§2) Test compound was diluted to 10 μg/ml in dimethylsulfoxide. Four μl of Rifampicin antibiotic was loaded into row H, column 2.
(§3) All wells were then filled with 100 μl of inoculated media (dilution 1 from Example 1). A further 100 μl of the inoculated media was then added to column 2 and the contents are pipetted to thoroughly mix the contents. A full 100 μl was then transferred from column 2 and mixed into column 3. This process was continued from left to right until columns 2-12 were serially diluted, and the final draw from column 12 was discarded. The plates were covered with 3M sealing tape (plates containing Enterococcus faecium were sealed with Air Pore sealing tape) and allowed to grow for 20-24 hours. Cytotoxic wells (clear wells) are then scored and the potency of the compound was determined.

Enterococcus faecium = system: Enterococcus faecium
Procedure: as §1, §2, §3

Salmonella choleraesuis = system: Salmonella choleraesuis
Procedure: as §1, §2, §3

Eschericia coli = system: Eschericia coli
Procedure: as §1, §2, §3

SMILES | MIC PA (Pseudomonas aeruginosa) | MIC EF (Enterococcus faecium) | MIC SC (Salmonella choleraesuis) | MIC EC (Eschericia coli)
CC(C)(C)[Si](C)(C)OC1CNC(C(=O)NCC2OC3OC4C(CNC(=O)C5CC(O[Si](C)(C)C(C)(C)C)CN5)OC(OC5C(CNC(=O)C6CC(O[Si](C)(C)C(C)(C)C)CN6)OC(OC6C(CNC(=O)C7CC(O[Si](C)(C)C(C)(C)C)CN7)OC(OC7C(CNC(=O)C8CC(O[Si](C)(C)C(C)(C)C)CN8)OC(OC8C(CNC(=O)C9CC(O[Si](C)(C)C(C)(C)C)CN9)OC(OC9C(CNC(=O)C%10CC(O[Si](C)(C)C(C)(C)C)CN%10)OC(OC2C(O)C3O)C(O)C9O)C(O)C8O)C(O)C7O)C(O)C6O)C(O)C5O)C(O)C4O)C1.O=C(O)C(F)(F)F.O=C(O)C(F)(F)F.O=C(O)C(F)(F)F.O=C(O)C(F)(F)F.O=C(O)C(F)(F)F.O=C(O)C(F)(F)F.O=C(O)C(F)(F)F (stereo not drawn) | >200 µg/mL | >200 µg/mL |  | 
CCCCCCCCCCNC[C@H]1O[C@@H]2O[C@H]3[C@H](O)[C@@H](O)[C@@H](O[C@H]4[C@H](O)[C@@H](O)[C@@H](O[C@H]5[C@H](O)[C@@H](O)[C@@H](O[C@H]6[C@H](O)[C@@H](O)[C@@H](O[C@H]7[C@H](O)[C@@H](O)[C@@H](O[C@H]8[C@H](O)[C@@H](O)[C@@H](O[C@H]1[C@H](O)[C@H]2O)O[C@@H]8CNCCCCCCCCCC)O[C@@H]7CNCCCCCCCCCC)O[C@@H]6CNCCCCCCCCCC)O[C@@H]5CNCCCCCCCCCC)O[C@@H]4CNCCCCCCCCCC)O[C@@H]3CNCCCCCCCCCC | >200 µg/mL |  | >200 µg/mL | >200 µg/mL
Oc1cccnc1NCC1OC2OC3C(CNc4ncccc4O)OC(OC4C(CNc5ncccc5O)OC(OC5C(CNc6ncccc6O)OC(OC6C(CNc7ncccc7O)OC(OC7C(CNc8ncccc8O)OC(OC8C(CNc9ncccc9O)OC(OC1C(O)C2O)C(O)C8O)C(O)C7O)C(O)C6O)C(O)C5O)C(O)C4O)C(O)C3O (stereo not drawn) | >200 µg/mL |  | >200 µg/mL | >200 µg/mL
CCCCCCCCCCCC[N+]12CC[N+](CC3OC4OC5C(C[N+]67CC[N+](CCCCCCCCCCCC)(CC6)CC7)OC(OC6C(C[N+]78CC[N+](CCCCCCCCCCCC)(CC7)CC8)OC(OC7C(C[N+]89CC[N+](CCCCCCCCCCCC)(CC8)CC9)OC(OC8C(C[N+]9%10CC[N+](CCCCCCCCCCCC)(CC9)CC%10)OC(OC9C(C[N+]%10%11CC[N+](CCCCCCCCCCCC)(CC%10)CC%11)OC(OC%10C(C[N+]%11%12CC[N+](CCCCCCCCCCCC)(CC%11)CC%12)OC(OC3C(O)C4O)C(O)C%10O)C(O)C9O)C(O)C8O)C(O)C7O)C(O)C6O)C(O)C5O)(CC1)CC2.[Br-].[Br-].[Br-].[Br-].[Br-].[Br-].[Br-].[Br-].[Br-].[Br-].[Br-].[Br-].[Br-].[Br-] (stereo not drawn) | >200 µg/mL |  | >200 µg/mL | >200 µg/mL
CCCCCCCCCCCCCCCC[N+]12CC[N+](CC3OC4OC5C(C[N+]67CC[N+](CCCCCCCCCCCCCCCC)(CC6)CC7)OC(OC6C(C[N+]78CC[N+](CCCCCCCCCCCCCCCC)(CC7)CC8)OC(OC7C(C[N+]89CC[N+](CCCCCCCCCCCCCCCC)(CC8)CC9)OC(OC8C(C[N+]9%10CC[N+](CCCCCCCCCCCCCCCC)(CC9)CC%10)OC(OC9C(C[N+]%10%11CC[N+](CCCCCCCCCCCCCCCC)(CC%10)CC%11)OC(OC%10C(C[N+]%11%12CC[N+](CCCCCCCCCCCCCCCC)(CC%11)CC%12)OC(OC3C(O)C4O)C(O)C%10O)C(O)C9O)C(O)C8O)C(O)C7O)C(O)C6O)C(O)C5O)(CC1)CC2.[Br-].[Br-].[Br-].[Br-].[Br-].[Br-].[Br-].[Br-].[Br-].[Br-].[Br-].[Br-].[Br-].[Br-] (stereo not drawn) | >200 µg/mL |  |  | 
OC1C2OC(CNc3cccc4ccccc34)C(OC3OC(CNc4cccc5ccccc45)C(OC4OC(CNc5cccc6ccccc56)C(OC5OC(CNc6cccc7ccccc67)C(OC6OC(CNc7cccc8ccccc78)C(OC7OC(CNc8cccc9ccccc89)C(OC8OC(CNc9cccc%10ccccc9%10)C(O2)C(O)C8O)C(O)C7O)C(O)C6O)C(O)C5O)C(O)C4O)C(O)C3O)C1O (stereo not drawn) | >200 µg/mL |  | >200 µg/mL | >200 µg/mL
OC1C2OC(CNc3ccccc3-c3ccccc3)C(OC3OC(CNc4ccccc4-c4ccccc4)C(OC4OC(CNc5ccccc5-c5ccccc5)C(OC5OC(CNc6ccccc6-c6ccccc6)C(OC6OC(CNc7ccccc7-c7ccccc7)C(OC7OC(CNc8ccccc8-c8ccccc8)C(OC8OC(CNc9ccccc9-c9ccccc9)C(O2)C(O)C8O)C(O)C7O)C(O)C6O)C(O)C5O)C(O)C4O)C(O)C3O)C1O (stereo not drawn) | >200 µg/mL |  | >200 µg/mL | >200 µg/mL
CCCCCCCCCC[N+]12CC[N+](CC(=O)NCC3OC4OC5C(CNC(=O)C[N+]67CC[N+](CCCCCCCCCC)(CC6)CC7)OC(OC6C(CNC(=O)C[N+]78CC[N+](CCCCCCCCCC)(CC7)CC8)OC(OC7C(CNC(=O)C[N+]89CC[N+](CCCCCCCCCC)(CC8)CC9)OC(OC8C(CNC(=O)C[N+]9%10CC[N+](CCCCCCCCCC)(CC9)CC%10)OC(OC9C(CNC(=O)C[N+]%10%11CC[N+](CCCCCCCCCC)(CC%10)CC%11)OC(OC%10C(CNC(=O)C[N+]%11%12CC[N+](CCCCCCCCCC)(CC%11)CC%12)OC(OC3C(O)C4O)C(O)C%10O)C(O)C9O)C(O)C8O)C(O)C7O)C(O)C6O)C(O)C5O)(CC1)CC2 (stereo not drawn) |  | >200 µg/mL |  | 
OC1C2OC(CNCc3cccc4ccccc34)C(OC3OC(CNCc4cccc5ccccc45)C(OC4OC(CNCc5cccc6ccccc56)C(OC5OC(CNCc6cccc7ccccc67)C(OC6OC(CNCc7cccc8ccccc78)C(OC7OC(CNCc8cccc9ccccc89)C(OC8OC(CNCc9cccc%10ccccc9%10)C(O2)C(O)C8O)C(O)C7O)C(O)C6O)C(O)C5O)C(O)C4O)C(O)C3O)C1O (stereo not drawn) | >200 µg/mL |  | >200 µg/mL | >200 µg/mL
C[C@H](NCC1OC2OC3C(CN[C@@H](C)c4ccccc4)OC(OC4C(CN[C@@H](C)c5ccccc5)OC(OC5C(CN[C@@H](C)c6ccccc6)OC(OC6C(CN[C@@H](C)c7ccccc7)OC(OC7C(CN[C@@H](C)c8ccccc8)OC(OC8C(CN[C@@H](C)c9ccccc9)OC(OC1C(O)C2O)C(O)C8O)C(O)C7O)C(O)C6O)C(O)C5O)C(O)C4O)C(O)C3O)c1ccccc1 (stereo partly drawn) | >200 µg/mL |  | >200 µg/mL | 
Cc1cccc(NCC2OC3OC4C(CNc5cccc(C)c5)OC(OC5C(CNc6cccc(C)c6)OC(OC6C(CNc7cccc(C)c7)OC(OC7C(CNc8cccc(C)c8)OC(OC8C(CNc9cccc(C)c9)OC(OC9C(CNc%10cccc(C)c%10)OC(OC2C(O)C3O)C(O)C9O)C(O)C8O)C(O)C7O)C(O)C6O)C(O)C5O)C(O)C4O)c1 (stereo not drawn) | >200 µg/mL |  | >200 µg/mL | >200 µg/mL
Cc1ccccc1NCC1OC2OC3C(CNc4ccccc4C)OC(OC4C(CNc5ccccc5C)OC(OC5C(CNc6ccccc6C)OC(OC6C(CNc7ccccc7C)OC(OC7C(CNc8ccccc8C)OC(OC8C(CNc9ccccc9C)OC(OC1C(O)C2O)C(O)C8O)C(O)C7O)C(O)C6O)C(O)C5O)C(O)C4O)C(O)C3O (stereo not drawn) | >200 µg/mL |  | >200 µg/mL | >200 µg/mL
COc1cccc(CCNCC2OC3OC4C(CNCCc5cccc(OC)c5)OC(OC5C(CNCCc6cccc(OC)c6)OC(OC6C(CNCCc7cccc(OC)c7)OC(OC7C(CNCCc8cccc(OC)c8)OC(OC8C(CNCCc9cccc(OC)c9)OC(OC9C(CNCCc%10cccc(OC)c%10)OC(OC2C(O)C3O)C(O)C9O)C(O)C8O)C(O)C7O)C(O)C6O)C(O)C5O)C(O)C4O)c1 (stereo not drawn) | >200 µg/mL |  |  | 
CC(C)CCCCC(C)NCC1OC2OC3C(CNC(C)CCCCC(C)C)OC(OC4C(CNC(C)CCCCC(C)C)OC(OC5C(CNC(C)CCCCC(C)C)OC(OC6C(CNC(C)CCCCC(C)C)OC(OC7C(CNC(C)CCCCC(C)C)OC(OC8C(CNC(C)CCCCC(C)C)OC(OC1C(O)C2O)C(O)C8O)C(O)C7O)C(O)C6O)C(O)C5O)C(O)C4O)C(O)C3O (stereo not drawn) | >200 µg/mL |  |  | 
OC1C2OC(CNCCC3=CCCCC3)C(OC3OC(CNCCC4=CCCCC4)C(OC4OC(CNCCC5=CCCCC5)C(OC5OC(CNCCC6=CCCCC6)C(OC6OC(CNCCC7=CCCCC7)C(OC7OC(CNCCC8=CCCCC8)C(OC8OC(CNCCC9=CCCCC9)C(O2)C(O)C8O)C(O)C7O)C(O)C6O)C(O)C5O)C(O)C4O)C(O)C3O)C1O (stereo not drawn) | >200 µg/mL |  |  | 
OC1C2OC(CNCc3ccc(Cl)cc3)C(OC3OC(CNCc4ccc(Cl)cc4)C(OC4OC(CNCc5ccc(Cl)cc5)C(OC5OC(CNCc6ccc(Cl)cc6)C(OC6OC(CNCc7ccc(Cl)cc7)C(OC7OC(CNCc8ccc(Cl)cc8)C(OC8OC(CNCc9ccc(Cl)cc9)C(O2)C(O)C8O)C(O)C7O)C(O)C6O)C(O)C5O)C(O)C4O)C(O)C3O)C1O (stereo not drawn) | >200 µg/mL |  | >200 µg/mL | 
Cc1cc(NCC2OC3OC4C(CNc5ccc(C(C)C)c(C)c5)OC(OC5C(CNc6ccc(C(C)C)c(C)c6)OC(OC6C(CNc7ccc(C(C)C)c(C)c7)OC(OC7C(CNc8ccc(C(C)C)c(C)c8)OC(OC8C(CNc9ccc(C(C)C)c(C)c9)OC(OC9C(CNc%10ccc(C(C)C)c(C)c%10)OC(OC2C(O)C3O)C(O)C9O)C(O)C8O)C(O)C7O)C(O)C6O)C(O)C5O)C(O)C4O)ccc1C(C)C (stereo not drawn) | >200 µg/mL |  | >200 µg/mL | >200 µg/mL
OC1C2OC(CNCc3ccc(Br)cc3)C(OC3OC(CNCc4ccc(Br)cc4)C(OC4OC(CNCc5ccc(Br)cc5)C(OC5OC(CNCc6ccc(Br)cc6)C(OC6OC(CNCc7ccc(Br)cc7)C(OC7OC(CNCc8ccc(Br)cc8)C(OC8OC(CNCc9ccc(Br)cc9)C(O2)C(O)C8O)C(O)C7O)C(O)C6O)C(O)C5O)C(O)C4O)C(O)C3O)C1O (stereo not drawn) |  |  |  | >200 µg/mL
